Measurements taken from US11701372B2, “Inhalation formulations of 1'-cyano substituted carba-nucleoside analogs” (priority 2020, dated 2023).
“And” between values parts separate entries of the source, which are not always exact repeats. Identical values can stand only once. Like-named read-outs stand apart in the source and are kept apart here.

Experiments:
[1] = type: physicochemical
Description: For each condition, samples were staged at ambient and refrigerated conditions. Samples were analyzed for % assay/degs, appearance, reconstitution time, pH, and compared to T=0. The structures of the key impurities/metabolites are shown below.

[2] = In use testing of reconstituted solutions in IV bags and IV tubings; type: physicochemical
Text: The IV bags and IV tubings were sampled over time and tested for % assay/degradation.

[3] = 24 hours, endogenous ATP

| Compound | % assay/degs ([1]; pH 1.8) | % assay/degs, difference from T = 0 ([1]; pH 1.8) | % assay/degs ([1]; pH 2) | % assay/degs, difference from T = 0 ([1]; pH 2) | % assay/degs ([1]; pH 3.5) | % assay/degs, difference from T = 0 ([1]; pH 3.5) | % assay/degradation [2] | ATP Peak Area (LC-MS/MS) ([3]; Nasal Mucosa, 0.168 mg/kg inhaled deposited dose of Formula Ia) | ATP Peak Area (LC-MS/MS) ([3]; Nasal Mucosa, 0.536 mg/kg inhaled deposited dose of Formula Ia) | ATP Peak Area (LC-MS/MS) ([3]; Nasopharyngeal Mucosa, 0.168 mg/kg inhaled deposited dose of Formula Ia) | ATP Peak Area (LC-MS/MS) ([3]; Nasopharyngeal Mucosa, 0.536 mg/kg inhaled deposited dose of Formula Ia) |
| --- | --- | --- | --- | --- | --- | --- | --- | --- | --- | --- | --- |
| Oc1ccccc1 [Phenol] | 0.00% | 0.00% and 0.04% and 0.08% | 0.00% | 0.00% and 0.04% and 0.05% | 0.00% | 0.00% | 0.00 % w/w |  |  |  |  |
| Nc1ncnc2c1ncn2[C@@H]1O[C@H](COP(=O)(O)OP(=O)(O)OP(=O)(O)O)[C@@H](O)[C@H]1O [ATP] |  |  |  |  |  |  |  | 6.47 ± 0.40 ×10^8 | 5.65 ± 0.79 ×10^8 | 4.29 ± 0.84 ×10^8 | 3.69 ± 0.40 ×10^8 |
